# Reference: patent US20110117220A1, “PREPARATION METHOD OF PLANT EXTRACT USING HIGH PRESSURE-ENZYMATIC DECOMPOSITION TECHNIQUE AND THE COSMETIC COMPOSITION CONTAINING THE EXTRACT” (AMOREPACIFIC CORPORATION, priority 2009, published 2011)
# Experiments:
# [1] = DPPH radical elimination (antioxidant activity); format: biochemical; conditions: 100 μM DPPH in ethanol, 37° C., 30 minutes, absorbance 540 nm
# Description: In order to measure the antioxidant effect of the plant extract prepared using the high-pressure enzymatic decomposition technique, a DPPH radical elimination effect was compared between the green tea extract prepared using the high-pressure enzymatic decomposition technique of the present invention (Example 1), the green tea extract prepared using the solvent extraction technique (Comparative Example 3), and Baicalin, a known antioxidant substance.
# To measure the antioxidant effects of these extracts, a method of evaluating antioxidant activity based on the change in absorbance caused by the reduction of the organic radical DPPH (1,1-diphenyl-2-picrylhydrazyl) was used. The decrease in absorbance caused by the inhibition of oxidation of DPPH compared to the control was measured, and the concentration (IC50) at which the absorbance was 50% of the control was defined as the effective antioxidant concentration. A lower IC50 value indicates a higher DPPH removal effect, indicating higher antioxidant activity.
# Specifically, 10 μl of each of the extracts of Example 1 and Comparative Example 3 and Baicalin was added to 100 μM of a solution of DPPH in ethanol to prepare a reaction solution. The reaction solution was allowed to react at 37° C. for 30 minutes, and then measured for absorbance at 540 nm.
# transglutaminase-1 = assay: Promotion of transglutaminase-1 synthesis in human skin cells; format: cell-based; conditions: concentration 1.5 mM, 2 days
# Experimental: Because the synthesis of transglutaminase-1 is essential for the formation and maintenance of the horny layer, the effect of promoting the synthesis of transglutaminase-1 can be considered to enhance the skin barrier and increase the skin moisturizing effect. Specifically, human skin cells were added to each well of a 96-well plate at a density of 5×10^4 cells/well and allowed to adhere to each well for 24 hours. The adhered cells were treated with each of the test materials, and after 2 days, the medium was removed, and the cells were stored in a refrigerator at −20° C. The treated cells were disrupted by subjecting the cells twice to freeze-thawing, and then treated with a mixture of acetone:ethanol (1:1, v/v) stored at −20° C. Then, the cells were allowed to stand at 4° C. for 30 minutes so as to be immobilized. Then, the cells were allowed to stand at room temperature to evaporate the organic solvent. […] The expression level of transglutaminase in the cells was determined by measuring the absorbance at 490 nm, and the correction of the measurement was carried out by measuring the background at 630 nm. The absorbance values of the treated cells were compared with the absorbance value of an untreated control group, thereby calculating the rate of promotion of transglutaminase-1 synthesis, and the results of the calculation are shown in Table 6 below.
# tyrosinase = assay: Tyrosinase activity inhibition (method of Vanni et al); format: biochemical; conditions: concentration 200 mg/ml; 37° C., 10 minutes
# Description: In order to measure the skin whitening effect of the plant extract prepared using the high-pressure enzymatic decomposition technique, a tyrosinase activity inhibitory effect was compared between the green tea extract of Example 1 prepared using the high-pressure enzymatic decomposition technique of the present invention, the green tea extract of Comparative Example 3 prepared using the solvent extraction technique, and vitamin C, a typical whitening functional component.
# The tyrosinase activity inhibitory effect was measured using the method of Vanni at al (A. Vanni, Annali Di Chimica, 80, p35, 1990). Specifically, 1.0 ml of 0.1M potassium phosphate buffer (pH 6.8), 1.0 ml of 0.3 mg/ml tyrosine aqueous solution and 0.1 ml of 1,250 units/ml tyrosinase (SIGMAT-7755) were mixed with each other, and 0.2 ml of each sample solution was added thereto at a concentration of 200 mg/ml. Then, the mixture was subjected to an enzymatic reaction at 37° C., for 10 minutes. The absorbance of the reaction solution was measured at 480 nm, and based on the results of the measurement, the tyrosinase activity inhibitory rate (%) of each sample was calculated according to the following equation 2. […]
# wherein A: absorbance at 480 nm of a reaction solution to which the sample was not added; and B: absorbance at 480 nm of a reaction solution to which the sample was added.
smiles,measurement,setting,value
O=C(O)[C@H]1O[C@@H](Oc2cc3oc(-c4ccccc4)cc(=O)c3c(O)c2O)[C@H](O)[C@@H](O)[C@@H]1O [Baicalin],IC50 (DPPH radical elimination),[1],3100 µg/mL
"[Ca+2].[Cl-].[Cl-] [Calcium chloride, calcium chloride]",Promotion rate of transglutaminase-1 synthesis (%),transglutaminase-1,169.9 ± 6.4%
"O=C1O[C@H]([C@@H](O)CO)C(O)=C1O [Vitamin C, vitamin C]",Tyrosinase activity inhibitory rate (%),tyrosinase,20%
